Data published in patent EP1490333B1, “NEW ATORVASTATIN SALTS AND PHARMACEUTICAL COMPOSITIONS CONTAINING THEM” (Richter Gedeon Nyrt., priority 2002, dated 2003).
Structures can show the parent of a compound that is named as a salt.

Legend:
[1] = test system: Caco-2 human epithelial cells; conditions: for absorption of atorvastatin: microtablets of the three basic salts placed on the mono layers, compared with each other, Figure 1
Experimental: The essence of the method is, that microtablets are pressed from the drug substances to be examined without adding auxiliaries. The microtablets are made under the same conditions with the same pressing force, therefor the rate of penetration through cell-layer is determined by the intrinsic features of the examined substances.
In the model the absorption of atorvastatin through human epithelial (Caco-2) mono cell-layer was measured in such a way, that the microtablets prepared from the test compounds were placed on the mono cell-layers in the vessels containing physiological saline, then the time dependent amount of the test substance, which passed through the mono cell-layer was determined from the saline solution of the other side of the mono cell-layer by chromatography.
During the experiments 4 µmol base equivalent amounts were placed on the mono cell-layers from the microtablets.
During the experiments the reference compounds were placed on the mono cell-layer (luminal side, which in vivo equals the inner side of the intestine) in solution, the amount of the test substance, which passed through the mono cell-layer (abluminal side, which in vivo equals the blood circulation) was determined by chromatography, then the absorption coefficient characteristic for the absorption of the compounds was calculated (the English abbreviation used in the literature: Papp value).
At the end of the absorption experiments the intactness of the epithelial mono cell-layers was microscopically checked after tainting with toluidine blue. The amount of the test and reference compounds in the samples was determined by HPLC.

[2] = Specific surface of the salts; type: physicochemical
[3] = in vivo; cited from earlier work

## CC(C)c1c(C(=O)Nc2ccccc2)c(-c2ccccc2)c(-c2ccc(F)cc2)n1CCC(O)CC(O)CC(=O)O.N=C(N)NCCCC(N)C(=O)O [L-arginine salt, Atorvastatin L-arginine salt]
[1]
  absorption of atorvastatin: no difference

## CC(C)c1c(C(=O)Nc2ccccc2)c(-c2ccccc2)c(-c2ccc(F)cc2)n1CC[C@@H](O)C[C@@H](O)CC(=O)O.NCCCC[C@H](N)C(=O)O [atorvastatin L-lysine salt]
[2]
  specific surface: 1.1 m^2/g
[1]; compared with polymorph I (crystal form I) of hemi-calcium salt
  absorption (penetration) of atorvastatin in Caco-2 model: significantly better
[1]
  absorption of atorvastatin: no difference
[1]; microtablets, compared with microtablets of polymorph I of hemi-calcium salt, Figure 2
  appearance of atorvastatin on the abluminal side of the mono cell-layers: significantly faster

## CC(C)c1c(C(=O)Nc2ccccc2)c(-c2ccccc2)c(-c2ccc(F)cc2)n1CC[C@@H](O)C[C@@H](O)CC(=O)O [atorvastatin hemi-calcium salt, (3R,5R)-7-[3-phenyl-4-[(phenylamino)carbonyl]-2-(4-fluorophenyl)-5-(1-methyl-ethyl)-pyrrol-1-yl]-3,5-dihydroxy-heptanoic acid]
[3]
  part of the applied dose absorbed: about 30%

## CC(C)c1c(C(=O)Nc2ccccc2)c(-c2ccccc2)c(-c2ccc(F)cc2)n1CC[C@@H](O)C[C@@H](O)CC(=O)O [atorvastatin hemi-calcium salt, reference compound]
[2]
  specific surface: 8.0 m^2/g
